{
  "source": "patent US9611248B2",
  "about": "“Chemical compounds” (Syngenta Participations AG, priority 2013, dated 2017)",
  "data": [
    {"test_system": "a variety of test species", "experiment": "Post-emergence herbicidal activity", "assay_type": "in vivo", "parameters": "key to ABUTH (Abutilon theophrasti) damage score / AMARE (Amaranthus retroflexus) damage score / ALOMY (Alopecurus myosuroides) damage score / ECHCG (Echinochloa crus-galli) damage score / ZEAMX (Zea mays) damage score / SOLNI (Solanum nigrum) damage score: 0 = no damage to plant, 5 = total damage to plant", "conditions": "rate 1000 g/ha, evaluated after 13 days", "procedure,_shortened": "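Damage on a 0–5 scale (5 = plant killed) was rated 13 days after treatment. Test species had been sown in standard soil and raised 8 days under glasshouse conditions of 24/16 °C, 14 h light, 65% humidity. They were then sprayed with aqueous solution from an acetone/water 50:50 formulation containing 0.5% Tween 20.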", "values": [
      {"molecule": "COC1=C(C)C(=O)N(c2cc(C(F)(F)F)c(-c3ccc(F)cc3F)cn2)C1O", "note": "(stereo not drawn) [AD131]", "ABUTH (Abutilon theophrasti) damage score": 5, "ALOMY (Alopecurus myosuroides) damage score": 2, "AMARE (Amaranthus retroflexus) damage score": 5, "ECHCG (Echinochloa crus-galli) damage score": 4, "SETFA (Setaria faberi) damage score": 4, "ZEAMX (Zea mays) damage score": 1},
      {"molecule": "COC1=C(C)C(=O)N(c2cc(C(F)(F)F)c(-c3ccccc3C)cn2)C1O", "note": "(stereo not drawn) [AD132]", "ABUTH (Abutilon theophrasti) damage score": 5, "ALOMY (Alopecurus myosuroides) damage score": 2, "AMARE (Amaranthus retroflexus) damage score": 5, "ECHCG (Echinochloa crus-galli) damage score": 4, "SETFA (Setaria faberi) damage score": 5, "ZEAMX (Zea mays) damage score": 2},
      {"molecule": "COC1=C(C)C(=O)N(c2cc(C(F)(F)F)c(-c3cccc(F)c3)cn2)C1O", "note": "(stereo not drawn) [AD133]", "ABUTH (Abutilon theophrasti) damage score": 5, "ALOMY (Alopecurus myosuroides) damage score": 2, "AMARE (Amaranthus retroflexus) damage score": 5, "ECHCG (Echinochloa crus-galli) damage score": 4, "SETFA (Setaria faberi) damage score": 4, "ZEAMX (Zea mays) damage score": 3},
      {"molecule": "COC1=C(C)C(=O)N(c2cc(Cl)c(-c3ccsc3)cn2)C1O", "note": "(stereo not drawn) [AD134]", "ABUTH (Abutilon theophrasti) damage score": 3, "ALOMY (Alopecurus myosuroides) damage score": 1, "AMARE (Amaranthus retroflexus) damage score": 5, "ECHCG (Echinochloa crus-galli) damage score": 2, "SETFA (Setaria faberi) damage score": 5, "ZEAMX (Zea mays) damage score": 1},
      {"molecule": "COC1=C(Br)C(O)N(c2cc(C(F)(F)F)ccn2)C1=O", "note": "(stereo not drawn) [AE1, 3-bromo-2-hydroxy-4-methoxy-1-[4-(trifluoromethyl)-2-pyridyl]-2H-pyrrol-5-one]", "ABUTH (Abutilon theophrasti) damage score": 4, "ALOMY (Alopecurus myosuroides) damage score": 3, "AMARE (Amaranthus retroflexus) damage score": 5, "ECHCG (Echinochloa crus-galli) damage score": 5, "SETFA (Setaria faberi) damage score": 3, "ZEAMX (Zea mays) damage score": 0},
      {"molecule": "COC1=C(Br)C(O)N(c2cc(C(C)(C)C)ccn2)C1=O", "note": "(stereo not drawn) [AE2]", "ABUTH (Abutilon theophrasti) damage score": 4, "ALOMY (Alopecurus myosuroides) damage score": 1, "AMARE (Amaranthus retroflexus) damage score": 2, "ECHCG (Echinochloa crus-galli) damage score": 2, "SETFA (Setaria faberi) damage score": 4, "ZEAMX (Zea mays) damage score": 1},
      {"molecule": "COC1=C(Cl)C(O)N(c2cc(C(C)(C)C)ccn2)C1=O", "note": "(stereo not drawn) [AF1]", "ABUTH (Abutilon theophrasti) damage score": 5, "ALOMY (Alopecurus myosuroides) damage score": 2, "AMARE (Amaranthus retroflexus) damage score": 5, "ECHCG (Echinochloa crus-galli) damage score": 4, "SETFA (Setaria faberi) damage score": 4, "ZEAMX (Zea mays) damage score": 1},
      {"molecule": "COC1=C(Cl)C(O)N(c2cc(C(F)(F)F)ccn2)C1=O", "note": "(stereo not drawn) [AF2]", "ABUTH (Abutilon theophrasti) damage score": 5, "ALOMY (Alopecurus myosuroides) damage score": 4, "AMARE (Amaranthus retroflexus) damage score": 5, "ECHCG (Echinochloa crus-galli) damage score": 5, "SETFA (Setaria faberi) damage score": 5, "ZEAMX (Zea mays) damage score": 3},
      {"molecule": "COC1=C(Cl)C(O)N(c2cc(C(C)(F)F)ccn2)C1=O", "note": "(stereo not drawn) [AF3]", "ABUTH (Abutilon theophrasti) damage score": 5, "ALOMY (Alopecurus myosuroides) damage score": 3, "AMARE (Amaranthus retroflexus) damage score": 5, "ECHCG (Echinochloa crus-galli) damage score": 5, "SETFA (Setaria faberi) damage score": 5, "ZEAMX (Zea mays) damage score": 1},
      {"molecule": "COc1nnc(N2C(=O)C(C)=C(Cl)C2O)cc1C", "note": "(stereo not drawn) [BA1]", "ABUTH (Abutilon theophrasti) damage score": 2, "ALOMY (Alopecurus myosuroides) damage score": 2, "AMARE (Amaranthus retroflexus) damage score": 3, "ECHCG (Echinochloa crus-galli) damage score": 1, "SETFA (Setaria faberi) damage score": 2, "ZEAMX (Zea mays) damage score": 1},
      {"molecule": "COc1nnc(N2C(=O)C(C)=C(Br)C2O)cc1C", "note": "(stereo not drawn) [BB1]", "ABUTH (Abutilon theophrasti) damage score": 1, "ALOMY (Alopecurus myosuroides) damage score": 0, "AMARE (Amaranthus retroflexus) damage score": 0, "ECHCG (Echinochloa crus-galli) damage score": 1, "SETFA (Setaria faberi) damage score": 2, "ZEAMX (Zea mays) damage score": 0},
      {"molecule": "COC1=C(C)C(=O)N(c2cc(C(C)(C)C)cnn2)C1O", "note": "(stereo not drawn) [BD1, 1-(5-tert-butylpyridazin-3-yl)-2-hydroxy-3-methoxy-4-methyl-2H-pyrrol-5-one]", "ABUTH (Abutilon theophrasti) damage score": 5, "ALOMY (Alopecurus myosuroides) damage score": 4, "AMARE (Amaranthus retroflexus) damage score": 5, "ECHCG (Echinochloa crus-galli) damage score": 5, "SETFA (Setaria faberi) damage score": 5, "ZEAMX (Zea mays) damage score": 1},
      {"molecule": "COC1=C(C)C(=O)N(c2cc(C(C)(C)C)c(Cl)nn2)C1O", "note": "(stereo not drawn) [BD2]", "ABUTH (Abutilon theophrasti) damage score": 5, "ALOMY (Alopecurus myosuroides) damage score": 4, "AMARE (Amaranthus retroflexus) damage score": 5, "ECHCG (Echinochloa crus-galli) damage score": 5, "SETFA (Setaria faberi) damage score": 5, "ZEAMX (Zea mays) damage score": 2},
      {"molecule": "COC1=C(C)C(=O)N(c2ccc(Cl)nn2)C1O", "note": "(stereo not drawn) [BD3]", "ABUTH (Abutilon theophrasti) damage score": 1, "ALOMY (Alopecurus myosuroides) damage score": 1, "AMARE (Amaranthus retroflexus) damage score": 2, "ECHCG (Echinochloa crus-galli) damage score": 1, "SETFA (Setaria faberi) damage score": 2, "ZEAMX (Zea mays) damage score": 0},
      {"molecule": "COC1=C(C)C(=O)N(c2cc(C(C)(C)CCl)c(Cl)nn2)C1O", "note": "(stereo not drawn) [BD4]", "ABUTH (Abutilon theophrasti) damage score": 5, "ALOMY (Alopecurus myosuroides) damage score": 4, "AMARE (Amaranthus retroflexus) damage score": 4, "ECHCG (Echinochloa crus-galli) damage score": 4, "SETFA (Setaria faberi) damage score": 5, "ZEAMX (Zea mays) damage score": 0},
      {"molecule": "COC1=C(C)C(=O)N(c2cc(C(C)C)c(OC)nn2)C1O", "note": "(stereo not drawn) [BD5]", "ABUTH (Abutilon theophrasti) damage score": 5, "ALOMY (Alopecurus myosuroides) damage score": 5, "AMARE (Amaranthus retroflexus) damage score": 5, "ECHCG (Echinochloa crus-galli) damage score": 5, "SETFA (Setaria faberi) damage score": 5, "ZEAMX (Zea mays) damage score": 3},
      {"molecule": "C=CCOc1nnc(N2C(=O)C(C)=C(OC)C2O)cc1C(C)C", "note": "(stereo not drawn) [BD6]", "ABUTH (Abutilon theophrasti) damage score": 1, "ALOMY (Alopecurus myosuroides) damage score": 1, "AMARE (Amaranthus retroflexus) damage score": 0, "ECHCG (Echinochloa crus-galli) damage score": 1, "SETFA (Setaria faberi) damage score": 2, "ZEAMX (Zea mays) damage score": 1},
      {"molecule": "CCOc1nnc(N2C(=O)C(C)=C(OC)C2O)cc1C(C)C", "note": "(stereo not drawn) [BD7]", "ABUTH (Abutilon theophrasti) damage score": 5, "ALOMY (Alopecurus myosuroides) damage score": 5, "AMARE (Amaranthus retroflexus) damage score": 5, "ECHCG (Echinochloa crus-galli) damage score": 5, "SETFA (Setaria faberi) damage score": 5, "ZEAMX (Zea mays) damage score": 3}
    ]}
  ]
}
